Test results published in paper PMC9032381 (Diagnostics, 2022).
Where “and” joins values, the source holds several entries; their conditions need not be identical. Equal values may be shown once. Read-outs that look alike come from different tables or passages of the source. One block for each compound: values may come before it.

[1] = measured, listed as 18F-Afatinib

Structure (SMILES): CN(C)C/C=C/C(=O)Nc1cc2c(Nc3ccc([18F])c(Cl)c3)ncnc2cc1OC1CCOC1 (stereo not drawn) [^18F-afatinib]
- SUV Aorta (blood SUV) (measured): 0.5 (±0.1)
- SUV Brain (measured): 0.04 (0.01)
- SUV Kidney (measured): 3.5 (0.7)
- SUV Liver (measured): 11.8 (2.2)
- SUV Lung (measured): 1.3 (0.5)
- SUV Spleen (measured): 6.8 (1.0)
- SUV Vertebra (measured): 2.4 (0.8)
- SUV-AUC Liver (measured): 731.5 (87.4) MBq/mL and seconds
- SUV-AUC Lung (measured): 98.5 (16.5) MBq/mL and seconds
- TBR Brain (measured): 0.08 (0.03)
- TBR Kidney (measured): 6.9 (1.8)
- TBR Liver (measured): 23.3 (6.2)
- TBR Lung (measured): 2.5 (1.2)
- TBR Spleen (measured): 13.2 (2.3)
- TBR Vertebra (measured): 4.8 (2.0)
- TBR-AUC Liver (measured): 747.7 (426.3) TBR and seconds
- TBR-AUC Lung (measured): 90.9 (37.9) TBR and seconds
- parent fraction (measured): 70% and 35%
- SUV Aorta (blood SUV) [1]: 0.5 (0.1)
- SUV Tumor [1]: 1.8 (1.3) and 1.6 (0.1)
- TBR Tumor [1]: 3.6 (2.4) and 3.3 (1.0)
- TBR-AUC Tumor [1]: 150.7 (9.1) TBR and seconds and 113.0 (44.8) TBR

Structure (SMILES): C#Cc1cccc(Nc2ncnc3cc(OCCOC)c(OCCOC)cc23)c1 [Erlotinib, reference compound]
- AUC dose normalized (cited): 207 µM·h
- Cmin at Css (cited): 2567 nM
- Ka (cited): 0.949 h⁻¹
- Metabolism Liver (cited): ~98%
- Renal extraction, unchanged (cited): < 2%
- Strength of basicity (cited): Weak
- Target Ctrough (cited): 1271 nM
- Time to Css (cited): 7 to 8 days

Structure (SMILES): C#Cc1cccc(Nc2ncnc3cc(OCCOC)c(OCCO)cc23)c1 [OSI-420]
- Active metabolite exposure (cited): 10 % AUC

Structure (SMILES): C=CC(=O)Nc1cc(Nc2nccc(-c3cn([11CH3])c4ccccc34)n2)c(OC)cc1N(C)CCN(C)C [^11C-osimertinib]
- parent fraction, initial decline (drop to) (measured): 50%
- parent fraction, plateau (measured): 28–29%

Structure (SMILES): C=CC(=O)Nc1cc(Nc2nccc(-c3cn(C)c4ccccc34)n2)c(OC)cc1N(C)CCN(C)C [Osimertinib, reference compound]
- AUC dose normalized (cited): 75 µM·h
- Cmin at Css (cited): 417 nM
- Metabolism Liver (cited): ~99%
- Renal extraction, unchanged (cited): 2%
- Strength of basicity (cited): Strong
- Target Ctrough (cited): 332 nM
- Time to Css (cited): 15 days

Structure (SMILES): CN(C)C/C=C/C(=O)Nc1cc2c(Nc3ccc(F)c(Cl)c3)ncnc2cc1O[C@H]1CCOC1 [Afatinib, reference compound]
- AUC dose normalized (cited): 23 µM·h
- Active metabolites (cited): None
- Ka (cited): 0.252 h⁻¹
- Strength of basicity (cited): Strong
- Target Ctrough (cited): 50 nM
- Time to Css (cited): 8 days

Now from value to compound, other results behind:

- Active metabolite exposure (cited): 10 % AUC
Structure (SMILES): C=CC(=O)Nc1cc(Nc2nccc(-c3cn(C)c4ccccc34)n2)c(OC)cc1N(C)CCNC [AZ7550]
- Active metabolite potency relative to osimertinib (OSI) (cited): as OSI

- Active metabolite exposure (cited): 10 % AUC
Structure (SMILES): C#Cc1cccc(Nc2ncnc3cc(OCCO)c(OCCOC)cc23)c1 [OSI413]

- Active metabolite exposure (cited): 10 % AUC
Structure (SMILES): C=CC(=O)Nc1cc(Nc2nccc(-c3c[nH]c4ccccc34)n2)c(OC)cc1N(C)CCN(C)C [AZ5104]
- Active metabolite potency relative to osimertinib (OSI) (cited): higher
